Source: ChEMBL document CHEMBL3044579, “Modified benzoxazinones in the system Oryza sativa-Echinochloa crus-galli: an approach to the development of biorational herbicide models” (J Agric Food Chem, 2008)

Columns and labels:
Echinochloa crus-galli [1] = experiment: Herbicidal activity against Echinochloa crus-galli (barnyard grass) seeds assessed as inhibition of root growth at 25 degC measured after 5 days; assay type: functional, organism-based; conditions: 120 h
Oryza sativa = experiment: Phytotoxic activity against Oryza sativa (rice) seeds assessed as inhibition of root growth at 25 degC measured after 7 days by crop selectivity assay; assay type: organism-based; conditions: L., 168 h
[2] = Selectivity index, ratio of IC50 for Oryza sativa L. seeds to IC50 for Echinochloa crus-galli L. seeds
Echinochloa crus-galli [3] = experiment: Ratio of propanil IC50 to compound IC50 for Echinochloa crus-galli (barnyard grass) seeds measured after 5 days; assay type: functional
[4] = Phytotoxic activity against Oryza sativa (rice) seeds assessed as inhibition of root growth at 48 uM at 25 degC measured after 7 days by crop selectivity assay; assay type: organism-based, L.; conditions: read-out: GI
Echinochloa crus-galli [5] = experiment: Herbicidal activity against Echinochloa crus-galli (barnyard grass) seeds assessed as inhibition of root growth at 48 uM at 25 degC measured after 5 days; assay type: functional; conditions: 120 h, read-out: GI

Compound | IC50 (Echinochloa crus-galli [1]) | IC50 (Oryza sativa) | Ratio IC50 [2] | also measured
CCCCCCCCCCCC(=O)ON1C(=O)COc2ccccc21 [LAU-DIBOA] | 170 µM |  |  | 
CCCCCCCCC(=O)ON1C(=O)COc2ccccc21 [NON-D-DIBOA] | 1440 µM |  |  | 
CCCCCCCCCC(=O)ON1C(=O)COc2ccccc21 [DEC-D-DIBOA] | 107 µM |  |  | 
CCOC(=O)C1(C)Oc2ccccc2N(O)C1=O [2-Ethoxycarbonyl-2-methyl-D-DIBOA] | 654 µM | 2890 µM | 4.42 | 
CCCCCC(=O)ON1C(=O)COc2ccccc21 [HEX-D-DIBOA] | 1200 µM |  |  | 
CCCC(=O)ON1C(=O)COc2ccccc21 [BU-D-DIBOA] | 2440 µM |  |  | 
CCCCCCC1Oc2ccccc2N(O)C1=O [2-Hexyl-D-DIBOA] | 5590 µM | 9880 µM | 1.77 | 
CCCCC(=O)ON1C(=O)COc2ccccc21 [VAL-D-DIBOA] | 1150 µM |  |  | 
CC1Oc2ccccc2N(O)C1=O [2-Methyl-D-DIBOA] | 298 µM | 483 µM | 1.62 | 
CCCCCCCCCCCCC(=O)ON1C(=O)COc2ccccc21 [TRIDEC-D-DIBOA] | 359 µM |  |  | 
CCCCCCCC(=O)ON1C(=O)COc2ccccc21 [OCT-D-DIBOA] | 448 µM |  |  | 
CCCCCCC(=O)ON1C(=O)COc2ccccc21 [HEPT-D-DIBOA] | 537 µM |  |  | 
CC(=O)ON1C(=O)COc2ccccc21 [ABOA] | 7180 µM |  |  | 
CCCC1Oc2ccccc2N(O)C1=O [2-Propyl-D-DIBOA] | 162 µM | 331 µM | 2.05 | 
O=C1COc2ccccc2N1O | 234 µM | 149 µM | 0.6 | 
CCOC(=O)C1Oc2ccccc2N(O)C1=O [2-Ethoxycarbonyl-D-DIBOA] | 290 µM | 1460 µM | 5.03 | 
CCCCCCCCCCCCCC(=O)ON1C(=O)COc2ccccc21 [MIR-D-DIBOA] | 206 µM |  |  | 
CCCCCCCCCCC(=O)ON1C(=O)COc2ccccc21 [UNDEC-D-DIBOA] | 422 µM |  |  | 
CCC(=O)ON1C(=O)COc2ccccc21 [PR-D-DIBOA] | 1090 µM |  |  | 
CCC1Oc2ccccc2N(O)C1=O [2-Ethyl-D-DIBOA] | 39 µM | 326 µM | 8.35 | Ratio IC50 (Echinochloa crus-galli [3]): 3; inhibition at 168 h, 48 µM [4]: 20%; inhibition of growth at 48 µM (Echinochloa crus-galli [5]): 50%
CCC(=O)Nc1ccc(Cl)c(Cl)c1 [PROPANIL] | 114 µM |  |  | 
CCCCC1Oc2ccccc2N(O)C1=O [2-Butyl-D-DIBOA] | 189 µM | 417 µM | 2.21 | 
O=C1C(c2ccccc2)Oc2ccccc2N1O [2-Phenyl-D-DIBOA] | 204 µM | 603 µM | 2.96 | 
